Conditions: in vivo

For CN1C(=O)CN=C(c2ccccc2)c2cc(Cl)ccc21 [Diazepam], the “Class(High: HIA value ≥0.7; Low: HIA value < 0.7)” value was “High (key: High: HIA value ≥0.7; Low: HIA value < 0.7)”.
In the case of O=C1CN=C(c2ccccc2)c2cc(Cl)ccc2N1 [Nordazepam], the “Class(High: HIA value ≥0.7; Low: HIA value < 0.7)” value is reported as “High (key: High: HIA value ≥0.7; Low: HIA value < 0.7)”.

Conditions: human; PreHIA data set, value given as fraction; cited from earlier work

For N[C@@H](Cc1ccc(O)c(O)c1)C(=O)O [Levodopa], the “HIA(Human Intestinal Absorption)” value is listed as 0.86.

Same assay, conditions: in vivo; cited from earlier work

Point of comparison: CC(=O)S[C@@H]1CC2=CC(=O)CC[C@]2(C)[C@H]2CC[C@@]3(C)[C@@H](CC[C@@]34CCC(=O)O4)[C@H]12 [Spironolactone], “HIA(Human Intestinal Absorption)” value 0.73. Against it:
- CO/N=C(\C(=O)N[C@@H]1C(=O)N2C(C(=O)O)=C(COC(C)=O)CS[C@H]12)c1csc(N)n1 [Cefotaxime] — lower, 0.05
- O=C(C1CCCCC1)N1CC(=O)N2CCc3ccccc3C2C1 (centres unmarked) [Praziquantel] — higher, 1
- CCC1(c2ccccc2)C(=O)NC(=O)NC1=O [Phenobarbital] — higher, 1
- CCC1=C(C)CN(C(=O)NCCc2ccc(S(=O)(=O)NC(=O)N[C@H]3CC[C@H](C)CC3)cc2)C1=O [Glimepiride] — higher, 1
- CC1(C)O[C@@H]2C[C@H]3[C@@H]4C[C@H](F)C5=CC(=O)C=C[C@]5(C)[C@H]4[C@@H](O)C[C@]3(C)[C@]2(C(=O)CO)O1 [Flunisolide] — higher, 0.8
- CCc1cc(C(N)=S)ccn1 [Ethionamide] — higher, 0.9
- CCCCc1nc(Cl)c(CO)n1Cc1ccc(-c2ccccc2-c2nn[nH]n2)cc1 [Losartan] — higher, 0.8
- OCCN(CCO)c1nc(N2CCCCC2)c2nc(N(CCO)CCO)nc(N3CCCCC3)c2n1 [Dipyridamole] — lower, 0.58
- CN1C2CCCC1CC(NC(=O)c1nn(C)c3ccccc13)C2 (centres unmarked) [Granisetron] — higher, 1
- CN(C)C(=N)N=C(N)N [Metformin] — lower, 0.53
- C#C[C@]1(OC(C)=O)CC[C@H]2[C@@H]3CCC4=CC(=NO)CC[C@@H]4[C@H]3CC[C@@]21CC (mixture of isomers) [Norgestimate] — higher, 1
- Cc1ccc(-c2ncc(Cl)cc2-c2ccc(S(C)(=O)=O)cc2)cn1 [Etoricoxib] — higher, 1
- COc1cc([C@@H]2c3cc4c(cc3[C@@H](O[C@@H]3O[C@@H]5CO[C@@H](C)O[C@H]5[C@H](O)[C@H]3O)[C@H]3COC(=O)[C@H]23)OCO4)cc(OC)c1O [Etoposide] — lower, 0.5
- CO/N=C(\C(=O)N[C@@H]1C(=O)N2C(C(=O)O)=CCS[C@H]12)c1csc(N)n1 [Ceftizoxime] — lower, 0.72
- CC(NCCc1ccc(O)cc1)C(O)c1ccc(O)cc1 (centres unmarked) [Ritodrine] — higher, 0.95
- NNc1nncc2ccccc12 [Hydralazine] — higher, 1
- CCCN1CC(NS(=O)(=O)N(CC)CC)CC2Cc3c(O)cccc3CC21 (centres unmarked) [Quinagolide] — higher, 1
- CNCCc1ccccn1 [Betahistine] — higher, 1
- NS(=O)(=O)Cc1noc2ccccc12 [Zonisamide] — higher, 1
- COc1cc(Cc2cnc(N)nc2N)cc(OC)c1OC [Trimethoprim] — higher, 0.97
- CNCCCN1c2ccccc2CCc2ccccc21 [Desipramine] — higher, 1
- N#Cc1ccc(C(c2ccc(C#N)cc2)n2cncn2)cc1 [Letrozole] — higher, 1
- Cc1ccc(O)c([C@H](CCN(C(C)C)C(C)C)c2ccccc2)c1 [Tolterodine] — higher, 0.77
- NS(=O)(=O)c1cc(C(=O)O)cc(N2CCCC2)c1Oc1ccccc1 [Piretanide] — higher, 0.85
- CO/N=C(\C(=O)N[C@@H]1C(=O)N2C(C(=O)O)=C(COC(N)=O)CS[C@H]12)c1ccco1 [Cefuroxime] — higher, 1
- O=C1CC[C@@]2(O)[C@H]3Cc4ccc(O)c5c4[C@@]2(CCN3CC2CC2)[C@H]1O5 [Naltrexone] — higher, 0.95
- CSc1ccc(C(=O)c2[nH]c(=O)[nH]c2C)cc1 [Enoximone] — higher, 0.8
- CC1=C(C(=O)O)N2C(=O)[C@@H](NC(=O)[C@H](N)c3ccc(O)cc3)[C@H]2SC1 [Cefadroxil] — higher, 1
- O=C(O)c1cc(/N=N/c2ccc(S(=O)(=O)Nc3ccccn3)cc2)ccc1O [Sulfasalazine] — lower, 0.62
- C#C[C@]1(O)CC[C@H]2[C@@H]3CCc4cc(OC)ccc4[C@H]3CC[C@@]21C [Mestranol] — higher, 0.9
- CC(=O)OCC(=O)[C@@]1(O)CC[C@H]2[C@@H]3CCC4=CC(=O)CC[C@]4(C)[C@@]3(F)[C@@H](O)C[C@@]21C [Fludrocortisone_acetate] — higher, 0.95
- Nc1nc(=O)[nH]cc1F [Flucytosine] — higher, 1
- Cc1cn([C@H]2C[C@H](N=[N+]=[N-])[C@@H](CO)O2)c(=O)[nH]c1=O [Zidovudine] — higher, 1
- O=NN(CCCl)C(=O)NCCCl [Carmustine] — higher, 1
- C[C@@H]1CN(c2c(F)c(N)c3c(=O)c(C(=O)O)cn(C4CC4)c3c2F)C[C@H](C)N1 [Sparfloxacin] — higher, 0.9
- C[C@]12C=CC(=O)C=C1CC[C@H]1[C@@H]3C[C@@H](O)[C@](O)(C(=O)CO)[C@@]3(C)C[C@H](O)[C@@]12F [Triamcinolone] — higher, 1
- CC(=O)c1ccc(S(=O)(=O)NC(=O)NC2CCCCC2)cc1 [Acetohexamide] — higher, 0.8
- COc1ccc2c(c1)C(=O)N(CCc1ccc(S(=O)(=O)NC(=O)NC3CCCCC3)cc1)C(=O)C2(C)C [Gliquidone] — higher, 0.95
- CC1(C)O[C@@H]2[C@@H](CO[C@@]3(COS(N)(=O)=O)OC(C)(C)O[C@@H]23)O1 [Topiramate] — higher, 0.86
- OC[C@@H](O)[C@@H](O)[C@H](O)[C@H](O)CO [Mannitol] — lower, 0.16
- O=C(NCCO[N+](=O)[O-])c1cccnc1 [Nicorandil] — higher, 1
- Cc1nnc(NS(=O)(=O)c2ccc(N)cc2)s1 [Sulfamethizole] — higher, 0.85
- CCCCC1=NC2(CCCC2)C(=O)N1Cc1ccc(-c2ccccc2-c2nnn[nH]2)cc1 [Irbesartan] — higher, 1
- Cc1ccc(S(=O)(=O)NC(=O)NN2CC3CCCC3C2)cc1 (centres unmarked) [Gliclazide] — lower, 0.65
- CN/C(=N/CCSCc1nc[nH]c1C)NC#N [Cimetidine] — lower, 0.64
- O=C(O)P(=O)(O)O [Foscarnet] — lower, 0.17
- O=C(NCCN1CCOCC1)c1ccc(Cl)cc1 [Moclobemide] — higher, 0.88
- CN(C)CCC(c1ccc(Cl)cc1)c1ccccn1 (centres unmarked) [Chlorpheniramine] — higher, 0.8
- CC(C)NCC(O)COc1ccc(CCOCC2CC2)cc1 (centres unmarked) [Betaxolol] — higher, 0.9
- NC(=O)N1c2ccccc2C=Cc2ccccc21 [Carbamazepine] — higher, 1
- CNC(=C[N+](=O)[O-])NCCSCc1ccc(CN(C)C)o1 [Ranitidine] — lower, 0.5
- O=C(O)c1cc(/N=N/c2ccc(S(=O)(=O)Nc3ccccn3)cc2)ccc1O [Sulphasalazine] — lower, 0.59
- O=C(O)Cc1ccccc1Oc1ccc(Cl)cc1Cl [Fenclofenac] — higher, 1
- CCC1(c2ccccc2)C(=O)NCNC1=O [Primidone] — higher, 0.75
- CNCCCC12CCC(c3ccccc31)c1ccccc12 [Maprotiline] — higher, 0.98
- NCCC(O)(P(=O)(O)O)P(=O)(O)O [Pamidronic_acid] — lower, 0.05
- Fc1ccc([C@@H]2CCNC[C@H]2COc2ccc3c(c2)OCO3)cc1 [Paroxetine] — higher, 1
- COCC(=O)O[C@]1(CCN(C)CCCc2nc3ccccc3[nH]2)CCc2cc(F)ccc2[C@@H]1C(C)C [Mibefradil] — lower, 0.69
- Cc1cnc(C(=O)O)c[n+]1[O-] [Acipimox] — higher, 0.95
- CNCCCC1c2ccccc2C=Cc2ccccc21 [Protriptyline] — higher, 0.95
- NC[C@H]1O[C@H](O[C@H]2[C@H](O)[C@@H](O[C@H]3O[C@H](CO)[C@@H](O)[C@H](N)[C@H]3O)[C@H](N)C[C@@H]2N)[C@H](N)C[C@@H]1O [Tobramycin] — lower, 0.01
- Cc1cccc(Nc2ccncc2S(=O)(=O)NC(=O)NC(C)C)c1 [Torasemide] — higher, 0.96
- Nc1ccc(/N=N/c2ccccc2)c(N)n1 [Phenazopyridine] — higher, 0.9
- NC(=O)c1cnccn1 [Pyrazinamide] — higher, 1
- C#C[C@]1(O)CC[C@H]2[C@@H]3CCc4cc(O)ccc4[C@H]3CC[C@@]21C [Ethynylestradiol] — higher, 1
- Cc1[nH]c(=O)c(C#N)cc1-c1ccncc1 [Milrinone] — higher, 0.83
- NC(N)=Nc1nc(CSCCC(N)=NS(N)(=O)=O)cs1 [Famotidine] — lower, 0.28
- [H]/N=C(\N/C(=N/[H])Nc1ccc(Cl)cc1)NC(C)C [Chlorguanide] — higher, 0.85
- N[C@@H]1CON=C1O [Cycloserine] — the same, 0.73
- Cc1noc(NS(=O)(=O)c2ccc(N)cc2)c1C [Sulfisoxazole] — higher, 0.95
- c1ccc([C@H]2CN3CCSC3=N2)cc1 [Levamisole] — higher, 0.95
- CN(C)CCCN1c2ccccc2Sc2ccc(Cl)cc21 [Chlorpromazine] — higher, 0.98
- CC(C)(C)NC[C@H](O)COc1cccc2c1CCCC2=O [Levobunolol] — higher, 1
- COc1cc2c(cc1OC)C1CC(=O)C(CC(C)C)CN1CC2 (centres unmarked) [Tetrabenazine] — higher, 1
- CO/N=C(\C(=O)N[C@@H]1C(=O)N2C(C(=O)O)=C(CSc3nc(=O)c(=O)[nH]n3C)CS[C@H]12)c1csc(N)n1 [Ceftriaxone] — higher, 1
- C[C@]12C[C@H](O)[C@H]3[C@@H](CCC4=CC(=O)CC[C@@]43C)[C@@H]1CC[C@@H]2C(=O)CO [Corticosterone] — higher, 1
